Laboratory results as given in ChEMBL document CHEMBL1201862, “PubChem BioAssay data set” (2004).
Active and inactive are the calls of the source.

Key:
[1] = biological target: T1, Replicative DNA helicase DnaB (Mycobacterium tuberculosis, UniProt P9WMR3); test: DnaB intein splicing inhibitors, dose response, biochemical, cell-free fluorescence (AID 449749); type: functional
T1 sequence (P9WMR3 whole entry): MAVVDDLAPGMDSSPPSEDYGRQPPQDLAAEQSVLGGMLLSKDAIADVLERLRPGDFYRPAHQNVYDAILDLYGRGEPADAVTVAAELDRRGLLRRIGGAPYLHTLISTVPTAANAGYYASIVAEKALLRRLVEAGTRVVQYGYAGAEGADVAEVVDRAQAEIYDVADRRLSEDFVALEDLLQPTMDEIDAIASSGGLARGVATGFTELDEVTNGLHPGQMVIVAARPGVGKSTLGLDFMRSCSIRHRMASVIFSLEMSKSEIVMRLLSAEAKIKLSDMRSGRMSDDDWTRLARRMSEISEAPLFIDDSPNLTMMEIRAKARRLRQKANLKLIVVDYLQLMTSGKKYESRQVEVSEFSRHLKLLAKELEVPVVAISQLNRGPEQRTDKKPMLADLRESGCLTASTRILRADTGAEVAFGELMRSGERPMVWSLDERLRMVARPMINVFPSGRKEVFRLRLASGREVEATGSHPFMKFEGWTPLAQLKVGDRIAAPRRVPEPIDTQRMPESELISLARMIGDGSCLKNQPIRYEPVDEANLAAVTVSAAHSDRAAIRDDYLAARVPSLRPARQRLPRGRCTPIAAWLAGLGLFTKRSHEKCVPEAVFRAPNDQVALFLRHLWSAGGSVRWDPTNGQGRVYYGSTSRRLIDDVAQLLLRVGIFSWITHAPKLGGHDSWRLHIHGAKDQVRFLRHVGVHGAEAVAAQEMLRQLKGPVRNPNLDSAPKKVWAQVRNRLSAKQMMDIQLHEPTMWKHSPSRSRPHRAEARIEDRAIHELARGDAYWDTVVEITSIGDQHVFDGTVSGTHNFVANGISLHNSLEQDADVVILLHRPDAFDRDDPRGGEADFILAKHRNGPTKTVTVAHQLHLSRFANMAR

Hexokinase HKDC1 = biological target: T2, Hexokinase HKDC1 (Homo sapiens, UniProt Q2TB90); test: inhibition of HKDC1 glucose phosphorylation – biochemical, W721R variant, dose response (AID 504729); type: functional
T2 sequence (Q2TB90 whole entry): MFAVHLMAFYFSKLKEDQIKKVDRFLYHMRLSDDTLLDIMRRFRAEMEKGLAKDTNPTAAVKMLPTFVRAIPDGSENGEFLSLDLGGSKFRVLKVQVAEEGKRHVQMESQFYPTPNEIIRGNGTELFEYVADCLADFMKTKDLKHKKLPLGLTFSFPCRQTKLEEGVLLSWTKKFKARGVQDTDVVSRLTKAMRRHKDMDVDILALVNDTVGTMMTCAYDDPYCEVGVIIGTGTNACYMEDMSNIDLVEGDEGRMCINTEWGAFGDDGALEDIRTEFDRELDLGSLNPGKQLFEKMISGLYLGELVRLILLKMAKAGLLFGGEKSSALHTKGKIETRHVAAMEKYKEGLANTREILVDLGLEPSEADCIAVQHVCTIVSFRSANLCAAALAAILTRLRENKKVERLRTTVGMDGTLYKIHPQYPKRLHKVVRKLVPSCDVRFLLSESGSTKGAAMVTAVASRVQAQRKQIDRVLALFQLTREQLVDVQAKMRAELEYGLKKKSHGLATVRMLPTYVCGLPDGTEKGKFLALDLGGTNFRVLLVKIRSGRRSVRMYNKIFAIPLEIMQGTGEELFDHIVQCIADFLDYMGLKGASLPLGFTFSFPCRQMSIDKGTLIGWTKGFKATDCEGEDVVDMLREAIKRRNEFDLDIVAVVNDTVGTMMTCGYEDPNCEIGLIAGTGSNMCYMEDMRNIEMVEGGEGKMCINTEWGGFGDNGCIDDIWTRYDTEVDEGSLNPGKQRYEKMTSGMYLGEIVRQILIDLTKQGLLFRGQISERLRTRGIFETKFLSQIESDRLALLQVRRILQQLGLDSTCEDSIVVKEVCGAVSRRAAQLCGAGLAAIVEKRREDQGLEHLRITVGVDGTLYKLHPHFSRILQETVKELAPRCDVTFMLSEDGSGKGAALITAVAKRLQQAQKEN

[2] = biological target: Induced myeloid leukemia cell differentiation protein Mcl-1 (Homo sapiens, UniProt Q07820); type: functional
[3] = biological target: T3, Bifunctional protein GlmU (Mycobacterium tuberculosis, UniProt P9WMN3); test: Inhibitors of Mycobacterial Glucosamine-1-phosphate acetyl transferase (GlmU). Secondary screen.; design: species or system Mycobacterium tuberculosis H37Rv
T3 sequence (P9WMN3 whole entry): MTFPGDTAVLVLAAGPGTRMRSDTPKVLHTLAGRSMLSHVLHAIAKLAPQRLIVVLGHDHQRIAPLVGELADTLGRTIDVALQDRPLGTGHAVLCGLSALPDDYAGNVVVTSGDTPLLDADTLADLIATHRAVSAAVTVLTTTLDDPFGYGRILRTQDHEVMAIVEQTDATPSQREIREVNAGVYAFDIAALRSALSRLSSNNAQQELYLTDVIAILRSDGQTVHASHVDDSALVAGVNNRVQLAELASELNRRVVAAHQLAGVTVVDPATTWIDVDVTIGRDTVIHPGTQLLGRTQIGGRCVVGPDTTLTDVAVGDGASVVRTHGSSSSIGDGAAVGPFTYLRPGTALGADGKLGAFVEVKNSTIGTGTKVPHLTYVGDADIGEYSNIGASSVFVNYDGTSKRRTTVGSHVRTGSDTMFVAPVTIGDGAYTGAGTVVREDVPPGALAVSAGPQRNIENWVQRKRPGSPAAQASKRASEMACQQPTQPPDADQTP

Large T antigen = Large T antigen (Simian virus 40, UniProt P03070); type: functional, Betapolyomavirus macacae;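 further: Confirmatory-stage PubChem screen for compounds that inhibit SV40 T antigen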
Large T antigen, sequence (P03070 whole entry): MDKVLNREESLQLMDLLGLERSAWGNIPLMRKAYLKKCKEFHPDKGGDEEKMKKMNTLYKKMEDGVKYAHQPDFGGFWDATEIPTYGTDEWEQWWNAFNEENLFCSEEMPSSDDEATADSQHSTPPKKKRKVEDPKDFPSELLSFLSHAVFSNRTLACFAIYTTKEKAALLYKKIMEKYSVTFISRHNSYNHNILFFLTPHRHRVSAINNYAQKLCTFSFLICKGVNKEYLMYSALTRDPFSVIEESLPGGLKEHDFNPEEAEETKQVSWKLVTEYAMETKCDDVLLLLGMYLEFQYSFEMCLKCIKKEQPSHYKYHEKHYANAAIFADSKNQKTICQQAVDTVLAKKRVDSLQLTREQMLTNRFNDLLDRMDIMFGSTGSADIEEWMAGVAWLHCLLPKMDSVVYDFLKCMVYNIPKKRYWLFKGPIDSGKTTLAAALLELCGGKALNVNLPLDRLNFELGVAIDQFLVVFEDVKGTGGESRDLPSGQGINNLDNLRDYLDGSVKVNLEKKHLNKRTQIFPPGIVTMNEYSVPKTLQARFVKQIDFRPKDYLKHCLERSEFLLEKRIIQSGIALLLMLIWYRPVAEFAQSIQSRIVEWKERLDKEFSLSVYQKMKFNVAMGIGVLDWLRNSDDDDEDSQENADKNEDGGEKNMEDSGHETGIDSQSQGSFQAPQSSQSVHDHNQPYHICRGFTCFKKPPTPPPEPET

Induced myeloid leukemia cell differentiation protein Mcl-1, sequence (Q07820 whole entry): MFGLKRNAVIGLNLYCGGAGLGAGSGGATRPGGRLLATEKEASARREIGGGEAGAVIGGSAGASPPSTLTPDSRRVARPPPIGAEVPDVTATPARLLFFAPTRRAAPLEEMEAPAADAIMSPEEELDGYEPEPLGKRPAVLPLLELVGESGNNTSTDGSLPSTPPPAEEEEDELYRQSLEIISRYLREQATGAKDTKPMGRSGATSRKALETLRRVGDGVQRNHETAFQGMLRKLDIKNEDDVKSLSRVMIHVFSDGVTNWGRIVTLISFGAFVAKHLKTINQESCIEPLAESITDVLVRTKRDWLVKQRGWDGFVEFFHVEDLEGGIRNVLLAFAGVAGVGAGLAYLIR

Cc1cc(C)c(S(=O)(=O)Nc2cc(SCC(=O)O)c(O)c3ccccc23)cc1C
AC50 [1]: 1.1 µM (active)
IC50 (Hexokinase HKDC1): 4.72 µM (active)
IC50 [2]: 10.5 µM (active)

O=C(O)c1cc(N2N=C(C(F)(F)F)/C(=C/C=C/c3ccco3)C2=O)ccc1Cl
IC50 [3]: 94.3 µM (active)
IC50 (Hexokinase HKDC1): 5.66 µM (active)
IC50 [2]: 4.69 µM (active)
IC50 (Large T antigen): 4.47 µM (active)

CNCc1ccccc1Sc1ccc(O)c(O)c1
AC50 [1]: > 120 µM (inactive)
